The target in this test is T1, C3a anaphylatoxin chemotactic receptor (Homo sapiens, UniProt Q16581).
T1 sequence (Q16581 whole entry): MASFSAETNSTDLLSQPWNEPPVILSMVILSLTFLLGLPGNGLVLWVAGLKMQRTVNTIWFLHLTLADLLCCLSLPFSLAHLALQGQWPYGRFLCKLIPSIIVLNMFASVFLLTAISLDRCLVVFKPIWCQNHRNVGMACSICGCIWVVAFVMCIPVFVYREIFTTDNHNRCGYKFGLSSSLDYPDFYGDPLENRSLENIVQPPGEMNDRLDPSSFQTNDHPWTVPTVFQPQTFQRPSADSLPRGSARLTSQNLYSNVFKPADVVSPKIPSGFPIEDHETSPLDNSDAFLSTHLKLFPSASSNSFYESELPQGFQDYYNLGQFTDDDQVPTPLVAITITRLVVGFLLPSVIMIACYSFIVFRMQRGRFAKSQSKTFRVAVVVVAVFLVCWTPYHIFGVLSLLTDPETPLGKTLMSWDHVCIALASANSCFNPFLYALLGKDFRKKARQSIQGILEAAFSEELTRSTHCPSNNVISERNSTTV
The test can be described thus: Displacement of [125I-C3a] from C3a receptor in human PBMC by scintillation counting.

As to `NC(N)=NCCC[C@H](NC(=O)COCC(c1ccccc1)c1ccccc1)C(=O)O` [(S)-2-(2-(2,2-diphenylethoxy)acetamido)-5-guanidinopentanoic acid], the IC50 is 125 nM.

(Values after BindingDB's records for doi:10.1021/jm1003705 (The University of Queensland, 2010).)
